US20250017912A1, “METHODS FOR DOWN-REGULATION AND UP-REGULATION OF PATHWAYS” (MedRegen, LLC, priority 2023, published 2025)
Where two headings read alike, the source gives them in different places.

Assays:
[1] = Tacrolimus whole blood pharmacokinetics (LC-MS-MS) after SC Composition A; type: in vivo, human; conditions: for Tacrolimus blood trough levels: 0.01 ml/kg dose group; for AUC / Cmax / Tmax / half-life: human, whole blood; for AUC: read-out: Tacrolimus AUCtau (GM); for Cmax: read-out: Tacrolimus Cmax (GM)
Description: Tacrolimus. Blood samples were obtained from all subjects in parallel as for plerixafor. Whole blood from each sample was stored in −80° C. condition until shipment. The analysis of K2EDTA whole blood for the quantitation of tacrolimus using a validated method by LC-MS-MS was performed by Worldwide Clinical Trials, Bioanalytical Services (Austin, TX, USA) in compliance with principles of GLP standards as referenced above.
Study data were collected and similar pharmacokinetic parameters as above were calculated using Analyst® (Version 1.4.2 or 1.6.1, Applied Biosystems/MDS Sciex) and evaluated with Watson Laboratory Information Management System™ (LIMS; Version 7.2.0.03, Thermo Fisher Scientific) software.

[2] = test system: cell migration stimulated by CXCL12; conditions: cited from earlier work
[3] = in vivo
[4] = test system: CD34+HSCs; conditions: cited from earlier work
[5] = clinical; conditions: human, in vivo
[6] = sc, 0.005 mL/kg, Composition A 0.005 mL/kg SC QAD, Day 5
[7] = sc, 0.005 mL/kg, Composition A 0.005 mL/kg SC, Day 1
[8] = sc, 0.01 mL/kg, Composition A 0.01 mL/kg SC QAD, Day 5
[9] = sc, 0.01 mL/kg, Composition A 0.01 mL/kg SC, Day 1
[10] = sc, 0.02 mL/kg, Composition A 0.02 mL/kg SC QAD, Day 5
[11] = sc, 0.02 mL/kg, Composition A 0.02 mL/kg SC, Day 1

Q: Which “Tacrolimus blood trough levels” value ([1]; day 1) does the source give for C=CC[C@@H]1/C=C(\C)C[C@H](C)C[C@H](OC)[C@H]2O[C@@](O)(C(=O)C(=O)N3CCCC[C@H]3C(=O)O[C@H](/C(C)=C/[C@@H]3CC[C@@H](O)[C@H](OC)C3)[C@H](C)[C@@H](O)CC1=O)[C@H](C)C[C@@H]2OC [Tacrolimus] here?
A: less than 2 ng/ml

Q: What about the “Tacrolimus blood trough levels” value ([1]; day 5) of the same molecule?
A: < 3 ng/mL

Q: What about the “Tacrolimus Cmax and AUC versus dose” value ([1]; Composition A 0.005, 0.01, 0.02 mL/kg, Day 1 and QAD for 5 days) of the same molecule?
A: increased in a dose-proportional manner

Q: What about the “Tacrolimus Ctrough (GM)” value ([1]; Composition A 0.005 mL/kg SC QAD, Day 5) of the same molecule?
A: 0.88 ng/mL

Q: And the “Tacrolimus Ctrough (GM)” value ([1]; Composition A 0.005 mL/kg SC, Day 1)?
A: 0.57 ng/mL

Q: What about the “Tacrolimus median Ctrough” value ([1]; Composition A 0.005 mL/kg, Day 1) of the same molecule?
A: 0.58 ng/mL

Q: What about the “Tacrolimus Ctrough” value ([1]; Composition A 0.005 mL/kg, Day 5) of the same molecule?
A: 0.90 ng/mL

Q: What about the “Tacrolimus Ctrough (GM)” value ([1]; Composition A 0.01 mL/kg SC QAD, Day 5) of the same molecule?
A: 1.89 ng/mL

Q: What about the “Tacrolimus Ctrough (GM)” value ([1]; Composition A 0.01 mL/kg SC, Day 1) of the same molecule?
A: 1.45 ng/mL

Q: What about the “Tacrolimus median Ctrough” value ([1]; Composition A 0.01 mL/kg, Day 1) of the same molecule?
A: 1.48 ng/mL

Q: And the “Tacrolimus Ctrough” value ([1]; Composition A 0.01 mL/kg, Day 5)?
A: 1.99 ng/mL

Q: What about the “Tacrolimus Ctrough (GM)” value ([1]; Composition A 0.02 mL/kg SC QAD, Day 5) of the same molecule?
A: 2.94 ng/mL

Q: What about the “Tacrolimus Ctrough (GM)” value ([1]; Composition A 0.02 mL/kg SC, Day 1) of the same molecule?
A: 2.12 ng/mL

Q: And the “Tacrolimus median Ctrough” value ([1]; Composition A 0.02 mL/kg, Day 1)?
A: 2.24 ng/mL

Q: And the “Tacrolimus Ctrough” value ([1]; Composition A 0.02 mL/kg, Day 5)?
A: 3.19 ng/mL

Q: What about the AUC [1, 6] of the same molecule?
A: 70.1 ng·h/mL

Q: And the Cmax [1, 6]?
A: 2.09 ng/mL

Q: And the Tmax ([1]; sc, 0.005 mL/kg, Composition A 0.005 mL/kg SC QAD, Day 5, read-out: Tacrolimus Tmax (Median))?
A: 10 h

Q: What about the half-life ([1]; sc, 0.005 mL/kg, Composition A 0.005 mL/kg SC QAD, Day 5, read-out: Tacrolimus t1/2 (GM) (converted)) of the same molecule?
A: 24.9 h

Q: And the AUC [1, 7]?
A: 46.4 ng·h/mL

Q: What about the Cmax [1, 7] of the same molecule?
A: 1.47 ng/mL

Q: What about the Tmax ([1]; sc, 0.005 mL/kg, Composition A 0.005 mL/kg SC, Day 1, read-out: Tacrolimus Tmax (Median)) of the same molecule?
A: 7.5 h

Q: And the half-life ([1]; sc, 0.005 mL/kg, Composition A 0.005 mL/kg SC, Day 1, read-out: Tacrolimus t1/2 (GM) (converted))?
A: 23.8 h

Q: What about the AUC [1, 8] of the same molecule?
A: 171 ng·h/mL

Q: And the Cmax [1, 8]?
A: 5.37 ng/mL

Q: And the Tmax ([1]; sc, 0.01 mL/kg, Composition A 0.01 mL/kg SC QAD, Day 5, read-out: Tacrolimus Tmax (Median))?
A: 5.5 h

Q: What about the half-life ([1]; sc, 0.01 mL/kg, Composition A 0.01 mL/kg SC QAD, Day 5, read-out: Tacrolimus t1/2 (GM) (converted)) of the same molecule?
A: 29.5 h

Q: What about the AUC [1, 9] of the same molecule?
A: 105 ng·h/mL

Q: And the Cmax [1, 9]?
A: 3.15 ng/mL

Q: What about the Tmax ([1]; sc, 0.01 mL/kg, Composition A 0.01 mL/kg SC, Day 1, read-out: Tacrolimus Tmax (Median)) of the same molecule?
A: 12 h

Q: And the half-life ([1]; sc, 0.01 mL/kg, Composition A 0.01 mL/kg SC, Day 1, read-out: Tacrolimus t1/2 (GM) (converted))?
A: 37.8 h

Q: And the AUC [1, 10]?
A: 237 ng·h/mL

Q: And the Cmax [1, 10]?
A: 7.91 ng/mL

Q: What about the Tmax ([1]; sc, 0.02 mL/kg, Composition A 0.02 mL/kg SC QAD, Day 5, read-out: Tacrolimus Tmax (Median)) of the same molecule?
A: 2 h

Q: And the half-life ([1]; sc, 0.02 mL/kg, Composition A 0.02 mL/kg SC QAD, Day 5, read-out: Tacrolimus t1/2 (GM) (converted))?
A: 30.6 h

Q: What about the AUC [1, 11] of the same molecule?
A: 152 ng·h/mL

Q: What about the Cmax [1, 11] of the same molecule?
A: 4.49 ng/mL

Q: And the Tmax ([1]; sc, 0.02 mL/kg, Composition A 0.02 mL/kg SC, Day 1, read-out: Tacrolimus Tmax (Median))?
A: 8.01 h

Q: What about the half-life ([1]; sc, 0.02 mL/kg, Composition A 0.02 mL/kg SC, Day 1, read-out: Tacrolimus t1/2 (GM) (converted)) of the same molecule?
A: 36.4 h

Q: What about the half-life ([1]; subcutaneous, Composition A 0.005, 0.01, 0.02 mL/kg, Days 1 and 5, read-out: Tacrolimus GM t1/2) of the same molecule?
A: 24 to 38 h

Q: What about the Tmax ([1]; subcutaneous, single dose Day 1 and QAD dosing for 5 days, all doses, read-out: Tacrolimus median Tmax) of the same molecule?
A: 2 to 12 h

Q: And the “Mean tacrolimus trough levels” value ([1]; intermediate dose of MRG-001 (0.01 mL/kg))?
A: 1.8 ng/mL

Q: And the “Mean tacrolimus trough levels” value ([1]; lowest dose of MRG-001 (0.005 ml/kg))?
A: 0.8 ng/mL

Q: What about the “Peak levels of tacrolimus” value ([1]; middle dose cohort (FIG. 1C)) of the same molecule?
A: 2 to 3 ng/mL

Q: With c1cc(CN2CCCNCCNCCCNCC2)ccc1CN1CCCNCCNCCCNCC1 [Plerixafor, 1,1′-[1,4-phenylenebis(methylene)]bis-1,4,8,11-tetraazacyclo-tetradecane] as the molecule, how does the IC50 [2] read?
A: 51 ± 17 nM

Q: What about the “Plerixafor median time to Cmax” value ([3]; human) of the same molecule?
A: 1 to 3 h

Q: And the Plerixafor elimination ([3]; human, 48 h)?
A: fully eliminated at 48 hours

Q: And the “Plerixafor Cmax and AUC versus dose” value [3]?
A: increased in a dose-proportional manner

Q: And the “Peak CD34+” value ([4]; high dose plerixafor (0.48 mg/kg))?
A: 32.2 c/μL

Q: What about the “CD34+HSCs mobilized at peak levels” value ([4]; normal dose of plerixafor (0.24 mg/kg)) of the same molecule?
A: 27.8 µL⁻¹

Q: What about the half-life ([5]; Plerixafor geometric mean t1/2) of the same molecule?
A: 3 to 6 h

Q: What about the half-life ([5]; sc, Plerixafor t1/2 (GM)) of the same molecule?
A: 3.29 h
